In US12630536B2, “Cyanotriazine derivative, preparation method therefor, and application thereof” (Chengdu Fanxi Biopharma Co., LTD., priority 2020, dated 2026):

Assays:
[1] = biological target: T1, THR-β ligand-binding domain (H6-THR-β) (Homo sapiens, UniProt P10828); assay: Co-activated peptide recruitment test of THR-β/RXR/GRIP1 (TR_LBD agonist detection, HTRF); assay type: biochemical
T1 construct: made in house; host or cells: Escherichia coli BL21 (DE3), vector pET28a
T1 sequence (P10828 217-461 limits assumed): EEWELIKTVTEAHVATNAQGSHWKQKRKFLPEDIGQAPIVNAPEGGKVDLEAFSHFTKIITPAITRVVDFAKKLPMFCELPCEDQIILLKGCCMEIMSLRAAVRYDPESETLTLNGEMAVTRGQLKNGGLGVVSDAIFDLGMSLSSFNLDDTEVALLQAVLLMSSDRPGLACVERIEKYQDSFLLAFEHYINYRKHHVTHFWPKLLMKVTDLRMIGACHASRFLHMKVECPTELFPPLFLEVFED
T1 sequence (P19793 225-462 partner limits assumed): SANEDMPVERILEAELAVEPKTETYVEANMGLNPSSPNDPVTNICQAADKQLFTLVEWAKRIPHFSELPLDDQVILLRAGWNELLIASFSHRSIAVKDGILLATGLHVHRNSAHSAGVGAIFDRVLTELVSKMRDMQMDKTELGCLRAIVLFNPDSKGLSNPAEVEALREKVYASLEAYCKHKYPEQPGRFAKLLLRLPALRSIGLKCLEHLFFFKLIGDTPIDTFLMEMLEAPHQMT
T1 sequence (Q15596 679-703 partner limits assumed): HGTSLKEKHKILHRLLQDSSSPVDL
Description: A ligand binding domain of THR-β (amino acids 148-410) (H6-THR-β) and a ligand binding domain of THR-α (amino acids 202-461) (H6-TRα) were cloned into E. coli expression vector pET28a (Novagen, Milwaukee, Wis.) containing N-terminal six His sequences. The resulting recombinant six-His-tagged protein was produced in E. coli BL21(DE3) cells. The cells were grown in Terrific Broth (self-used self-prepared Bacto tryptone (3.3%, w/v), Difico yeast extract (2.0%, w/v) and NaCl (0.5%, w/v) medium), incubated at 25° C. for 24 hours using a shake flask in 0.2 mM IPTG, harvested or dissolved with 5 volumes of buffer A (0.05 M Tris, 0.3 M NaCl, 1% W/V betaine, 0.01 M imidazole, 0.02 M b-mercaptoethanol, pH 8.0). Lysozyme (1.0 mg/ml, Sigma) and CompleteProtease Inhibitor Cocktail (Roche Diagnostics Gmbh) were added to the slurry and the solution was sonicated for one minute and 5 times at 4° C. The suspension was centrifuged at 127,300 RCF for 2 hours in a Ti45 Beckmann rotor and the supernatant was loaded onto an NI NTAAgarose (Quigen 30210) column. After washing with the buffer A, […] or H6-THR-α was eluted with the buffer A containing 0.25 M imidazole.
30 microliters of H6-THR-β (50 nM) or H6-THR-α in 50 mM Hepes, pH 7.0, 1 mM DTT, 0.05% NP40 and 0.2 mg/ml BSA (binding buffer) were mixed with an equal volume of EE-RxRα (50 nM) in the binding buffer. […] Aliquot ([…]) was transferred to a 384-well black microtiter plate. HTRF signal was read on a Victor5 reader (PerkinElmer Life and Analytical Sciences). EC50 was calculated.
Gene clones expressing a ligand-binding domain (amino acids 148-410) of THR-β (H6-THR-β) and a ligand-binding domain (amino acids 202-461) of THR-α (H6-THR-α) were inserted into an Escherichia coli expression vector pET28a, and the expression vector contained one N-terminal 6-His sequence. The expression vector was introduced into an Escherichia coli BL21 (DE3) strain to produce a recombinant protein with a His tag. […] After finishing culturing, a bacterium in culture was collected, and the collected bacterium was resuspended with a lysis solution (0.05 M Tris, 0.3 M NaCl, 1% W/V betaine, 0.01 M imidazole, 0.02 M β-mercaptoethanol, and pH 8.0) with a volume 5 times that of the bacterium, and lysozyme and protease inhibitors were added at the same time, the treated bacteria was subjected to ultrasonic lysis (5 times per minute) in ice bath (4° C.). A lysed suspension was centrifuged at 127300 RCF for 2 hours, a supernatant was loaded on a NI_NTA agarose (Quigen 30210) column, and after washing with a buffer A, an H6-TRβ or H6-TRα protein was eluted with the buffer A containing 0.25 M imidazole.
A human retinol X receptor (amino acid 225-462) (RxRα) was subjected to engineering modification, so that an N-terminal of the human retinol X receptor had His6 and EE(EFMPME) tags, and then the human retinol X receptor was cloned into a pACYC vector, and produced a His6 EEtagged protein in Escherichia coli. IPTG with a final concentration of 0.1 mM was added into the culture medium for induction, and cultured in a shaking flask at 18° C. for 18 hours. After finishing culturing, a bacterium in culture was collected, and the collected bacterium was re-suspended with a lysis solution (0.05 M Tris, 0.3 M NaCl, 1% W/V betaine, 0.01 M imidazole, 0.02 β-mercaptoethanol, and pH 8.0) with a volume 5 times that of the bacterium, lysozyme and protease inhibitors were added at the same time, and stirred at 4° C. for 30 minutes. Then, a suspension was subjected to an ultrasonic treatment at 4° C. for 30 seconds for 5 times. The suspension was collected, and centrifuged at 12000 RCF for 20 minutes. A supernatant was collected, and the supernatant was filtered with a membrane with a pore size of 0.45 μm, and then added with 0.5% NP-40.

[2] = test system: TR beta-UAS-bla HEK 293T Cells; assay: TR cell-based agonist detection, β-lactamase reporter (LiveBLAzer FRET B/G), TR beta
Description: A method for testing a THR-α/β activation activity of a compound by an in-vitro cell level was as follows.
Compounds were transferred to a 384-well plate by an ECHO liquid workstation, and each compound was diluted by 3 times with 10 gradient concentrations, which was in triplicate. 1.5×10^4 DMEM-cultured cells (TR beta-UAS-bla HEK 293T Cells) or 1.0×10^4 TR alpha-UAS-bla HEK 293T Cells were placed in the 384-well plate. HEK 293T-TR beta was incubated in an incubator for 16 hours, and HEK 293T-TR alpha was incubated in an incubator for 24 hours. A LiveBLAzer™-FRET B/G (CCF4-AM) substrate was added into the cell plate to detect expression of β-lactamase in cells, and under excitation of 409 nm, a product produced fluorescence with a wavelength of 447 nm. When the β-lactamase was not expressed, under excitation of 409 nm, fluorescence with a wavelength of 520 nm was directly produced through FRET. Combination between the compound and the protein was determined by detecting a ratio of the two kinds of fluorescence (blue/green, 460 nm/530 nm), thus calculating EC50 of the compound. […] Calculation of a factor Z (greater than 0.5) would be used for monitoring a stability of each experiment.

EC50 ([1]; Detection of TR_LBD agonist, read-out: TR_beta_EC50): 4.96 nM
Maximum activity ratio (A520/A495) ([1]; TR_LBD agonist, TR_β): 4.02
Measurement of cpd/T3 (maximum ratio) ([1]; TR_LBD agonist, TR_β, maximum relative to T3): 73.4%
α/β ([1]; TR_LBD agonist, ratio TR_α EC50 / TR_β EC50): 7.13
SMILES: Cn1cnc2ccc(Oc3c(Br)cc(-n4nc(C#N)c(=O)[nH]c4=O)cc3Br)cc21 [Compound 1, 2-(3,5-dibromo-4-((1-methyl-1H-benzo[d]imidazol-6-yl)oxy)phenyl)-3,5-dioxo-2,3,4,5-tetra hydro-1,2,4-triazine-6-carbonitrile]
Emax ([2]; Homo sapiens, HEK-293T, 16 h, TR_cell-based agonist, TR_β, read-out: Maximum activity ratio (A460/A530)): 41.1%
EC50 ([2]; Homo sapiens, Detection of TR_cell-based agonist, HEK 293T-TR beta, 16 hours, read-out: TR_β_EC50): 577 nM
Measurement of cpd/T3 (maximum ratio) ([2]; TR_cell-based agonist, TR_β, maximum relative to T3): 7.5%
α/β ([2]; TR_cell-based agonist, ratio TR_α EC50 / TR_β EC50): 7.49
